# According to US20130197085A1, “AGENT AND METHOD FOR STABILIZING MEMBRANE PROTEIN” (priority 2007, published 2013):
# Columns and labels:
# [1] = target: CFTRΔF508 (Homo sapiens, UniProt P13569, DEL508-508); details: Non-Patent Document 2; cited from earlier work
# [2] = target: T1, E297G BSEP (Homo sapiens, UniProt O95342, E297G/L339V); assay: Treatment with actinomycin D and cycloheximide, upregulation of mature BSEP by 4PBA in MDCKII cells; type: cell-based; details: 1 mM 4PBA, 6 hours
# T1 construct: expressed in transfected cells; host or cells: MDCKII cells infected with recombinant adenovirus
# T1 sequence (O95342 whole entry E297G/L339V): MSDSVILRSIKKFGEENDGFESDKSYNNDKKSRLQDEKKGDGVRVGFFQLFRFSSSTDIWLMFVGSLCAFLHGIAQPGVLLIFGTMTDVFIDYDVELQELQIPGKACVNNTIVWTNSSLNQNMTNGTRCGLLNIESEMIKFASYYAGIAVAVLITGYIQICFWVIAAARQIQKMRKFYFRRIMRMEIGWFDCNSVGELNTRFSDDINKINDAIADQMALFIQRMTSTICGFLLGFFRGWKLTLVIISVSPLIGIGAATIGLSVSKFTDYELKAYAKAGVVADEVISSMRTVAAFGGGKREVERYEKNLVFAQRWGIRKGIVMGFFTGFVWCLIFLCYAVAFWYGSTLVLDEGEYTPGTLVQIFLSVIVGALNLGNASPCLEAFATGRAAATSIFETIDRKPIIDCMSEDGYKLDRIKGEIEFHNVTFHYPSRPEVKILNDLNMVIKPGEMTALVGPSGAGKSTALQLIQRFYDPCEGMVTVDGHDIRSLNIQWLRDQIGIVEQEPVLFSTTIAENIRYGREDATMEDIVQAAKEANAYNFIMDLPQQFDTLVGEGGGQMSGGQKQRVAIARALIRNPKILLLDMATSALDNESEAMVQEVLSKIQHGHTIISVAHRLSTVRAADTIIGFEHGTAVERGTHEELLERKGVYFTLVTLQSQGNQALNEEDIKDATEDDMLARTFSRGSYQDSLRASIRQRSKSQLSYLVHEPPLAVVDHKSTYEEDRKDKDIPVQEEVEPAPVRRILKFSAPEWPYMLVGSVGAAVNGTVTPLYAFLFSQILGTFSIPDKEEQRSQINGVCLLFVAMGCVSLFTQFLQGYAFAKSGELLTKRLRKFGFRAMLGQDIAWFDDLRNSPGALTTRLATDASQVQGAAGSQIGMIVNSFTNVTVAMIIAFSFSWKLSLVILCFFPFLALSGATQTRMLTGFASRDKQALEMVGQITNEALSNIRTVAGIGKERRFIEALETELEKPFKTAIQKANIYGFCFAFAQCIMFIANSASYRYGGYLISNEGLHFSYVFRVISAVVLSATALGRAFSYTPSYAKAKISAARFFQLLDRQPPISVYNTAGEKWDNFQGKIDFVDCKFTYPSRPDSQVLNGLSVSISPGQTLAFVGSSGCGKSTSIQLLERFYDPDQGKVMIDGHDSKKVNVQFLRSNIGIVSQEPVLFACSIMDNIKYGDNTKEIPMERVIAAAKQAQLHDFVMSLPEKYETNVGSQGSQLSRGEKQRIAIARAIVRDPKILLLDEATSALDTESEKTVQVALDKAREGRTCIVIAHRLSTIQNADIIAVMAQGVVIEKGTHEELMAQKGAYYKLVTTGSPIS
# Procedure: (§1) MDCKII cells were dispersed on a 6-well plate, resulting in a density of 2.5×10^5 cells/well. After completion of the culture for 24 hours, the confluent cells were infected with recombinant adenoviruses having the cDNAs of wild-type, E297G and D482G BSEPs, and GFP, at 200 MOI. After completion of the infection, the cells were cultured for 36 hours. Thereafter, in order to inhibit mRNA synthesis, the cells were treated in the presence or absence of 5 μg/ml actinomycin D (Sigma). Otherwise, in order to inhibit protein synthesis, the cells were treated in the presence or absence of 20 μg/ml cycloheximide (Sigma). After completion of the treatment for 2 hours, in the presence or absence of actinomycin D or in the presence or absence of cycloheximide, 4PBA was added to the cells to a concentration of 1 mM. At the time point of 6 hours (E297G and D482G BSEPs) or 8 hours (wild-type BSEP) after the 4PBA treatment, a crude membrane fraction was prepared. The obtained fraction was separated by 6% SDS-PAGE, and Western blotting was then carried out.
# [3] = target: T2, D482G BSEP (Homo sapiens, UniProt O95342, D482G/L339V); assay: as above; type: cell-based; details: 1 mM 4PBA, 6 hours
# T2 construct: expressed in transfected cells; host or cells: MDCKII cells infected with recombinant adenovirus
# T2 sequence (O95342 whole entry L339V/D482G): as the sequence (O95342 whole entry E297G/L339V) above, with G297E, D482G counted along it
# Procedure: as §1
# [4] = target: T3, wild-type BSEP (Homo sapiens, UniProt O95342, L339V); assay: as above; type: cell-based; details: 1 mM 4PBA, 8 hours
# T3 construct: expressed in transfected cells; host or cells: MDCKII cells infected with recombinant adenovirus
# T3 sequence (O95342 whole entry L339V): as the sequence (O95342 whole entry E297G/L339V) above, with G297E counted along it
# Procedure: as §1
# [5] = system: wild-type BSEP mRNA; assay: Measurement of BSEP mRNA level by real-time quantitative PCR in MDCKII cells; type: cell-based, human; details: 1 mM 4PBA, 24 hours; not statistically significant (P=0.10)
# Procedure: (§2) MDCKII cells were dispersed on a 6-well plate, resulting in a density of 2.5×10^5 cells/well. After completion of the culture for 24 hours, the confluent cells were infected with recombinant adenoviruses having the cDNAs of wild-type, E297G and D482G BSEPs, and GFP, at 50 MOI. After completion of the infection, the cells were cultured for 24 hours. Thereafter, the cultured cells were treated with 1 mM 4PBA. After completion of the treatment for 24 hours, RNA was isolated using ISOGEN (Wako Pure Chemical Industries, Ltd.) in accordance with an instruction manual included therewith. A DNaseI treatment was carried out at 37° C. for 1 hour, and a reverse transcription reaction was then carried out (see Hayashi et al., Hepatology, 41: 916-924, 2005). The BSEP mRNA level was measured by real-time quantitative PCR according to an ordinary method. The quantitative PCR was carried out using the following primers.
# (§3) It is to be noted that the expression of a BSEP gene in each reaction was standardized by the expression of GAPDH.
# [6] = system: D482G BSEP mRNA; assay: as above; type: cell-based, human; details: 1 mM 4PBA, 24 hours; not statistically significant (P=0.20)
# Procedure: as §2, §3
# [7] = system: E297G BSEP mRNA; assay: as above; type: cell-based, human; details: 1 mM 4PBA, 24 hours; not statistically significant (P=0.20)
# Procedure: as §2, §3
# Sequence of CFTRΔF508 (P13569 with tags, fused parts or gaps DEL508-508): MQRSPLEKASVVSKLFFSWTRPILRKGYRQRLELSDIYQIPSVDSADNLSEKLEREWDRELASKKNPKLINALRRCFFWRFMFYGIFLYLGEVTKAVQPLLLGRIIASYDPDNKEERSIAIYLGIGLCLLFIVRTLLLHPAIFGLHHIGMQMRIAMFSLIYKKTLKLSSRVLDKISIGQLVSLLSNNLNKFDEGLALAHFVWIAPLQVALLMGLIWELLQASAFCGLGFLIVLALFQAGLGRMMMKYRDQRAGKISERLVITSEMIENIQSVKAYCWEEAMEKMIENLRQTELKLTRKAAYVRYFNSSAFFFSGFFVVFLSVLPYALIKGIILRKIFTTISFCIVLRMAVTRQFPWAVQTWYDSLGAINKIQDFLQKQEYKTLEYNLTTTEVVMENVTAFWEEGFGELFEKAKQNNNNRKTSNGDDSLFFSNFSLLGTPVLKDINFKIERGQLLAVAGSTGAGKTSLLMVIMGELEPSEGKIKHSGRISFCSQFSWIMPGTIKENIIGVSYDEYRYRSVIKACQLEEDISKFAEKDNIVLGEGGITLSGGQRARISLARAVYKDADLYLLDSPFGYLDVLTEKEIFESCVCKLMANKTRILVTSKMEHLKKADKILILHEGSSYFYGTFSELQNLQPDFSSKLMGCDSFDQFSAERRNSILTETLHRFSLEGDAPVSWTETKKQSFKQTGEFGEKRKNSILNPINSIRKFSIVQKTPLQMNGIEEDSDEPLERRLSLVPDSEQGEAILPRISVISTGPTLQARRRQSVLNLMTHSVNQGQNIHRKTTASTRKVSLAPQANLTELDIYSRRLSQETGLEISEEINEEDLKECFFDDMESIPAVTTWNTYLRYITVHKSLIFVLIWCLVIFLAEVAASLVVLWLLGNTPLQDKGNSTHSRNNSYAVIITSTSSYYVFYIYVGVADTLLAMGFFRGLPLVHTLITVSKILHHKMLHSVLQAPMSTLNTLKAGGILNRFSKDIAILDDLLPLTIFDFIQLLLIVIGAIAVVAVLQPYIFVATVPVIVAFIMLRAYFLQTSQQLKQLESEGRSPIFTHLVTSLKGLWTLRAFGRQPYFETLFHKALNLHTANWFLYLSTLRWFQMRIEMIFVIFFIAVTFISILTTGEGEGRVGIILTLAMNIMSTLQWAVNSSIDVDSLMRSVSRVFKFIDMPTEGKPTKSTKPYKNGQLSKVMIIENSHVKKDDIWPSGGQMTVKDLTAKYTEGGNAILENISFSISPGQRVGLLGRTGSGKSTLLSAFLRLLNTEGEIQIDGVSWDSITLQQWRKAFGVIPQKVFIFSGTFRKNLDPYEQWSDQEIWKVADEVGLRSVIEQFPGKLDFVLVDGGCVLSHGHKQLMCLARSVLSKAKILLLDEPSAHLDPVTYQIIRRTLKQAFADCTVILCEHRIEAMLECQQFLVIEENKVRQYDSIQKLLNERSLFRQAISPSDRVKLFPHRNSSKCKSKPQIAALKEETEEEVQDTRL
smiles,measurement,setting,value
"O=C(O)CCCc1ccccc1 [4PBA, 4-phenylbutyric acid]",expression of CFTRΔF508 on the cell membrane,[1],recovers its expression on the cell membrane
same,effect of transcription inhibition by actinomycin D on the increase in expression of mature BSEP due to 4PBA,[2]; actinomycin D 5 μg/ml,did not affect
same,effect of translation inhibition by cycloheximide on the increase in expression of mature BSEP due to 4PBA,[2]; cycloheximide 20 μg/ml,did not affect
same,effect of transcription inhibition by actinomycin D on the increase in expression of mature BSEP due to 4PBA,[3]; actinomycin D 5 μg/ml,did not affect
same,effect of translation inhibition by cycloheximide on the increase in expression of mature BSEP due to 4PBA,[3]; cycloheximide 20 μg/ml,did not affect
same,effect of transcription inhibition by actinomycin D on the increase in expression of mature BSEP due to 4PBA,[4]; actinomycin D 5 μg/ml,did not affect
same,effect of translation inhibition by cycloheximide on the increase in expression of mature BSEP due to 4PBA,[4]; cycloheximide 20 μg/ml,did not affect
same,expression level of BSEP mRNA standardized by GAPDH mRNA,[5],slightly increased
same,expression level of BSEP mRNA standardized by GAPDH mRNA,[6],slightly increased
same,expression level of BSEP mRNA standardized by GAPDH mRNA,[7],slightly increased
